Laboratory results: patent US11999699B2, “Substituted pyrazole amides” (GRUENENTHAL GMBH, priority 2021, dated 2024)

Biological target: T1, human NaV1.8 (Homo sapiens, UniProt Q9Y5Y9)
T1 construct: The following NaV1.8 recombinant cell line was used for recordings: HEK-NaV1.8 (NM 006514.1); expressed in transfected cells; host or cells: HEK (recombinant cell line HEK-NaV1.8)
Assay: Electrophysiology: automated whole-cell voltage-clamp (patch clamp, Qube384) recordings of sodium currents in HEK-NaV1.8 cells
Format: cell-based
Conditions: potency data either taken from inactivated or resting state, read-out: Potency category (human NaV1.8 IC50)
In short: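 Automated whole-cell patch clamp at room temperature on HEK cells expressing human NaV1.8, with 0.3% DMSO vehicle controls. State-dependent protocol from −120 mV tested resting (P1) and half-inactivated (P2, 4 s at V1/2) channels, plus 40-pulse trains at 10 and 20 Hz. Values after ~12 min compound exposure were normalised to baseline and corrected for vehicle run-down; IC50 from a 4-parameter logistic fit, taken from inactivated or resting state.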

T1 sequence (Q9Y5Y9 whole entry): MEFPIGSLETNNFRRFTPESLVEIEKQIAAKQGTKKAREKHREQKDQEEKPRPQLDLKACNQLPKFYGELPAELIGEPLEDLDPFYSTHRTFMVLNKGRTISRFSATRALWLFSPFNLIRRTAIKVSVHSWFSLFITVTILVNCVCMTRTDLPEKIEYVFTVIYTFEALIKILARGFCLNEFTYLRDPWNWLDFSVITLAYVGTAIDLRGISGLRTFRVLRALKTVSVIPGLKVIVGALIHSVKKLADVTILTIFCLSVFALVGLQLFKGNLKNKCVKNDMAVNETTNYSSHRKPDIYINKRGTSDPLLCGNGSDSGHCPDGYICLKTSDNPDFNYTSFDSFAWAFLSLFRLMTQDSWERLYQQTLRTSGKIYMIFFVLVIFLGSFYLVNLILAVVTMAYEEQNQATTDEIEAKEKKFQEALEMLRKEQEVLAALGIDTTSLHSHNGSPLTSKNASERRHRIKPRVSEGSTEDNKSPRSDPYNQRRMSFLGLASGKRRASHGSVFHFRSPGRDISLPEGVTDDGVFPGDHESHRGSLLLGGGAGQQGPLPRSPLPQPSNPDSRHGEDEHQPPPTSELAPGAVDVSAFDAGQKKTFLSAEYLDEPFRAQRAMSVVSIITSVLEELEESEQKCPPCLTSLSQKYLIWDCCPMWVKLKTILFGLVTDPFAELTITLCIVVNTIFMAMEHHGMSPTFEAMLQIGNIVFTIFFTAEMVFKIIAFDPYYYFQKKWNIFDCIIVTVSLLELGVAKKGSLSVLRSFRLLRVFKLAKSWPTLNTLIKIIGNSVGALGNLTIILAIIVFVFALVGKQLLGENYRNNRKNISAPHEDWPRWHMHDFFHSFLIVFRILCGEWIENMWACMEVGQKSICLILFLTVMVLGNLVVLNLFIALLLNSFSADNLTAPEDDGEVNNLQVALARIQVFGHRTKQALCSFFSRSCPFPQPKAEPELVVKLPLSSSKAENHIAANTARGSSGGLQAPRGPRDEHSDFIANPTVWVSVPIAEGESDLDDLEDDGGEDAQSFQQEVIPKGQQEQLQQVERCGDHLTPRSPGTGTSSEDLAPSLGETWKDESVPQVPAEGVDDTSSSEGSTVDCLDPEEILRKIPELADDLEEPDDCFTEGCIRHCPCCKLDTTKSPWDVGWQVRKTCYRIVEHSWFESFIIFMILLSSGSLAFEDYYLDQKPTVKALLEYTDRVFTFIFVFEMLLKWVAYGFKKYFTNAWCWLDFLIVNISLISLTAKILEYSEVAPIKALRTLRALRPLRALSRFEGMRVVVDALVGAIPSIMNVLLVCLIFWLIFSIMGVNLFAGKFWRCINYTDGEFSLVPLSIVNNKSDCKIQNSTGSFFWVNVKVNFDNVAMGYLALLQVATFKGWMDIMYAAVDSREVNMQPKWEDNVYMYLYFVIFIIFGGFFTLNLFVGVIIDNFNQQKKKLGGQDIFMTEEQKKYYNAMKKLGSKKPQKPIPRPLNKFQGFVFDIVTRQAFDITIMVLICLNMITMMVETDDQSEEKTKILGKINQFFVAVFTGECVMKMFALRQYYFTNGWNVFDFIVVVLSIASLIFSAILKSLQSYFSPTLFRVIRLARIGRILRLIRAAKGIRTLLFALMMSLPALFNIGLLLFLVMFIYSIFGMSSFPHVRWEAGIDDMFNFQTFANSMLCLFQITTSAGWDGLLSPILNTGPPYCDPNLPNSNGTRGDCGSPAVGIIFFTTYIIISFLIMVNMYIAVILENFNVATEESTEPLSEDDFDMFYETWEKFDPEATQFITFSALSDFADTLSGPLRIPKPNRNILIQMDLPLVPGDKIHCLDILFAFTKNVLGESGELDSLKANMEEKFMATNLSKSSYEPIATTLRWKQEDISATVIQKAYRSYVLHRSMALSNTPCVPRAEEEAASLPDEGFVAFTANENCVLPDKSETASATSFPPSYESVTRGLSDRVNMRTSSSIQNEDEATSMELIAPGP
T1 sequence (Q9NY72 23-215 partner): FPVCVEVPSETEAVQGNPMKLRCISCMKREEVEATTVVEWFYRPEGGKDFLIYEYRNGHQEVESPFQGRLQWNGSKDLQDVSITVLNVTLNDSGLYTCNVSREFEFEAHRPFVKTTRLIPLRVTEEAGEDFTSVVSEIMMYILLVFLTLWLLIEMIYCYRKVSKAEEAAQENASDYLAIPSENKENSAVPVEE

Structure (SMILES) | IC50 [nM]
Cc1ncc(NC(=O)c2c(C(F)(F)F)c(C)nn2CC2CCC(F)(F)CC2)cc1C(N)=O [SC-251, 5-(1-((4,4-difluorocyclohexyl)methyl)-3-methyl-4-(trifluoromethyl)-1H-pyrazole-5-carboxamido)-2-methylnicotinamide] | 1000 to 10000
Cc1cc(NC(=O)c2c(C(F)(F)F)c(C)nn2CC2CCC(F)(F)CC2)ccn1 [SC-252, 1-((4,4-difluorocyclohexyl)methyl)-3-methyl-N-(2-methylpyridin-4-yl)-4-(trifluoromethyl)-1H-pyrazole-5-carboxamide] | 100 to 1000
Cc1nn(CC2CCC(F)(F)CC2)c(C(=O)Nc2cccc(C(N)=O)n2)c1C(F)(F)F [SC-253, 6-(1-((4,4-difluorocyclohexyl)methyl)-3-methyl-4-(trifluoromethyl)-1H-pyrazole-5-carboxamido)picolinamide] | 1000 to 10000
CS(=O)(=O)c1cccc(NC(=O)c2c(C(F)(F)F)cnn2CC2(O)CCCCC2)c1 [SC-255, 1-((1-hydroxycyclohexyl)methyl)-N-(3-(methylsulfonyl)phenyl)-4-(trifluoromethyl)-1H-pyrazole-5-carboxamide] | 1000 to 10000
Cc1nn(CC2CCC(F)(F)CC2)c(C(=O)Nc2ncc(C(N)=O)o2)c1C(F)(F)F [SC-256, 2-(1-((4,4-difluorocyclohexyl)methyl)-3-methyl-4-(trifluoromethyl)-1H-pyrazole-5-carboxamido)oxazole-5-carboxamide] | 1000 to 10000
Cc1nn(CC2CCC(F)(F)CC2)c(C(=O)Nc2ccc(C(N)=O)nc2)c1C(F)(F)F [SC-257, 5-(1-((4,4-difluorocyclohexyl)methyl)-3-methyl-4-(trifluoromethyl)-1H-pyrazole-5-carboxamido)picolinamide] | 100 to 1000
CNC(=O)c1cc(NC(=O)c2c(C(F)(F)F)c(C)nn2CC2CCC(F)(F)CC2)ccn1 [SC-260, 4-(1-((4,4-difluorocyclohexyl)methyl)-3-methyl-4-(trifluoromethyl)-1H-pyrazole-5-carboxamido)-N-methyIpicolinamide] | 100 to 1000
NC(=O)c1cc(NC(=O)c2c(Cl)c(C3CC3)nn2CC2CCOCC2)ccn1 [SC-261, 4-(4-chloro-3-cyclopropyl-1-((tetrahydro-2H-pyran-4-yl)methyl)-1H-pyrazole-5-carboxamido)picolinamide] | 100 to 1000
NS(=O)(=O)c1cccc(NC(=O)c2c(C(F)(F)F)c(C(F)F)nn2CC2CCC(F)(F)C2)c1 (centres unmarked) [SC-262, 1-((3,3-difluorocyclopentyl)methyl)-3-(difluoromethyl)-N-(3-sulfamoylphenyl)-4-(trifluoromethyl)-1H-pyrazole-5-carboxamide] | ≤ 100
CS(=O)(=O)c1cc(NC(=O)c2c(C(F)(F)F)c(C3CC3)nn2CC2CCCO2)ccn1 (centres unmarked) [SC-263, 3-cyclopropyl-N-(2-(methylsulfonyl)pyridin-4-yl)-1-((tetrahydrofuran-2-yl)methyl)-4-(trifluoromethyl)-1H-pyrazole-5-carboxamide] | 100 to 1000
NS(=O)(=O)c1cccc(NC(=O)c2c(C(F)(F)F)c(C3CC3)nn2CC2CCCCO2)c1 (centres unmarked) [SC-264, 3-cyclopropyl-N-(3-sulfamoylphenyl)-1-((tetrahydro-2H-pyran-2-yl)methyl)-4-(trifluoromethyl)-1H-pyrazole-5-carboxamide] | ≤ 100
COc1nn(CC2CCC(F)(F)C2)c(C(=O)Nc2cccc(S(N)(=O)=O)c2)c1C(F)(F)F (centres unmarked) [SC-265, 1-((3,3-difluorocyclopentyl)methyl)-3-methoxy-N-(3-sulfamoyIphenyl)-4-(trifluoromethyl)-1H-pyrazole-5-carboxamide] | ≤ 100
NC(=O)c1cc(NC(=O)c2c(C(F)(F)F)c(C3CC3)nn2CC2CC2)ccn1 [SC-266, 4-(3-cyclopropyl-1-(cyclopropylmethyl)-4-(trifluoromethyl)-1H-pyrazole-5-carboxamido)picolinamide] | ≤ 100
Cc1cc(NC(=O)c2c(C(F)(F)F)c(C)nn2CC2CCC(F)(F)CC2)cc(C(N)=O)n1 [SC-267, 4-(1-((4,4-difluorocyclohexyl)methyl)-3-methyl-4-(trifluoromethyl)-1H-pyrazole-5-carboxamido)-6-methylpicolinamide] | 100 to 1000
Cc1nn(CC2CCC(F)(F)CC2)c(C(=O)Nc2cc(C(N)=O)c(F)cn2)c1C(F)(F)F [SC-268, 2-(1-((4,4-difluorocyclohexyl)methyl)-3-methyl-4-(trifluoromethyl)-1H-pyrazole-5-carboxamido)-5-fluoroisonicotinamide] | 1000 to 10000
COc1c(C(F)(F)F)nn(CC2CCC(F)(F)C2)c1C(=O)Nc1ccnc(C(N)=O)c1 (centres unmarked) [SC-269, 4-(1-((3,3-difluorocyclopentyl)methyl)-4-methoxy-3-(trifluoromethyl)-lH-pyrazole-5-carboxamido)picolinamide] | 100 to 1000

Structure (SMILES) | IC50 [nM]
COc1nn(CC2CCC(F)(F)C2)c(C(=O)Nc2ccnc(C(N)=O)c2)c1C(F)(F)F (centres unmarked) [SC-273, 4-(1-((3,3-difluorocyclopentyl)methyl)-3-methoxy-4-(trifluoromethyl)-lH-pyrazole-5-carboxamido)picolinamide] | ≤ 100
NC(=O)c1cc(NC(=O)c2c(C(F)(F)F)c(C3CC3)nn2CC2CC(F)(F)C2)ccc1F [SC-274, N-(3-carbamoyl-4-fluorophenyl)-3-cyclopropyl-1-((3,3-difluorocyclobutyl)methyl)-4-(trifluoromethyl)-1H-pyrazole-5-carboxamide] | ≤ 100
CS(=O)(=O)c1cc(NC(=O)c2c(C(F)F)c(C3CC3)nn2CC2CCC(F)(F)C2)ccn1 (centres unmarked) [SC-275, 3-cyclopropyl-1-((3,3-difluorocyclopentyl)methyl)-4-(difluoromethyl)-N-(2-(methylsulfonyl)pyridin-4-yl)-1H-pyrazole-5-carboxamide] | ≤ 100
NS(=O)(=O)c1cccc(NC(=O)c2c(C(F)(F)F)c(C3CC3)nn2CC2CC(F)(F)C2)c1 [SC-276, 3-cyclopropyl-1-((3,3-difluorocyclobutyl)methyl)-N-(3-sulfamoyIphenyl)-4-(trifluoromethyl)-lH-pyrazole-5-carboxamide] | ≤ 100
Cc1nn(CC2CCC(F)(F)CC2)c(C(=O)Nc2cnnc(S(C)(=O)=O)c2)c1C(F)(F)F [SC-280, 1-((4,4-difluorocyclohexyl)methyl)-3-methyl-N-(6-(methylsulfonyl)pyridazin-4-yl)-4-(trifluoromethyl)-1H-pyrazole-5-carboxamide] | 100 to 1000
NS(=O)(=O)c1cc(NC(=O)c2c(C(F)(F)F)c(C3CC3)nn2CC2CC(F)(F)C2)ccn1 [SC-282, 3-cyclopropyl-1-((3,3-difluorocyclobutyl)methyl)-N-(2-sulfamoylpyridin-4-yl)-4-(trifluoromethyl)-1H-pyrazole-5-carboxamide] | ≤ 100
NC(=O)c1cc(NC(=O)c2c(C(F)(F)F)c(OC3CC(F)(F)C3)nn2CC2CCC(F)(F)C2)ccn1 (centres unmarked) [SC-283, 4-(3-(3,3-difluorocyclobutoxy)-1-((3,3-difluorocyclopentyl)methyl)-4-(trifluoromethyl)-1H-pyrazole-5-carboxamido)picolinamide] | ≤ 100
Cc1nn(CC2CCC(F)(F)CC2)c(C(=O)Nc2ccnc(C(N)=O)c2F)c1C(F)(F)F [SC-289, 4-(1-((4,4-difluorocyclohexyl)methyl)-3-methyl-4-(trifluoromethyl)-1H-pyrazole-5-carboxamido)-3-fluoropicolinamide] | 1000 to 10000
CS(=O)(=O)c1cc(NC(=O)c2c(C(F)(F)F)c(C3CC3)nn2CC2CC(OC(F)F)C2)ccn1 (centres unmarked) [SC-290, 3-cyclopropyl-1-((3-(difluoromethoxy)cyclobutyl)methyl)-N-(2-(methyIsulfonyl)pyridin-4-yl)-4-(trifluoromethyl)-1H-pyrazole-5-carboxamide] | 100 to 1000
Cc1nn(CC2CCC(F)(F)CC2)c(C(=O)Nc2ccnc(C(N)=O)c2C)c1C(F)(F)F [SC-294, 4-(1-((4,4-difluorocyclohexyl)methyl)-3-methyl-4-(trifluoromethyl)-1H-pyrazole-5-carboxamido)-3-methylpicolinamide] | 1000 to 10000
Cc1c(C(C)(F)F)nn(CC2CC(F)(F)C2)c1C(=O)Nc1cccc(S(N)(=O)=O)c1 [SC-295, 1-((3,3-difluorocyclobutyl)methyl)-3-(1,1-difluoroethyl)-4-methyl-N-(3-sulfamoylphenyl)-1H-pyrazole-5-carboxamide] | ≤ 100
CCc1nn(CC2CCC(F)(F)C2)c(C(=O)Nc2ccnc(S(C)(=O)=O)c2)c1C(F)(F)F (centres unmarked) [SC-297, 1-((3,3-difluorocyclopentyl)methyl)-3-ethyl-N-(2-(methylsulfonyl)pyridin-4-yl)-4-(trifluoromethyl)-1H-pyrazole-5-carboxamide] | ≤ 100
NC(=O)c1cc(NC(=O)c2c(OCC(F)(F)F)c(C3CC3)nn2CC2CCC(F)(F)C2)ccn1 (centres unmarked) [SC-298, 4-(3-cyclopropyl-1-((3,3-difluorocyclopentyl)methyl)-4-(2,2,2-trifluoroethoxy)-1H-pyrazole-5-carboxamido)picolinamide] | 1000 to 10000
Cc1c(C(C)(F)F)nn(CC2(C(F)(F)F)CC(F)(F)C2)c1C(=O)Nc1ccnc(C(N)=O)c1 [SC-299, 4-(1-((3,3-difluoro-1-(trifluoromethyl)cyclobutyl)methyl)-3-(1,1-difluoroethyl)-4-methyl-1H-pyrazole-5-ca±oxamido)picolinamide] | ≤ 100
Cc1c(C(C)(F)F)nn(C[C@H]2C[C@@H](F)C2)c1C(=O)Nc1ccnc(C(N)=O)c1 [SC-301, 4-(3-(1,1-difluoroethyl)-1-((3-fluorocyclobutyl)methyl)-4-methyl-1H-pyrazole-5-carboxamido)picolinamide] | 100 to 1000
CCc1nn(CC2CC(F)(F)C2)c(C(=O)Nc2ccnc(S(C)(=O)=O)c2)c1C [SC-302, 1-((3,3-difluorocyclobutyl)methyl)-3-ethyl-4-methyl-N-(2-(methylsulfonyl)pyridin-4-yl)-1H-pyrazole-5-carboxamide] | 100 to 1000
